Patent US20240327339A1, “COMPOSITIONS AND METHODS FOR TREATING AND PREVENTING VIRAL INFECTIONS” (priority 2021, published 2024)
In brackets after ≈: the same amount, converted by molar mass. Entries after “also recorded” stand apart in the source; their conditions may differ.

How the values were obtained:
[1] = system: RSV A2; assay: In vivo inhibition study, BALB/c mouse model of RSV infection; design: species or system BALB/c mice; settings: 2 or 200 mg/kg i.p., 24 h before or 24 h after infection, days 3, 5, 7 pi
[2] = system: hMPV CAN83 (A2 strain); assay: hMPV challenge of BALB/c mice; type: in vivo; settings: 24 h prior to or 24 h post infection; lungs 5 dpi; FIGS. 26A-26B
Procedure: BALB/c mice were prophylactically (24 h prior to) or post-infection (24 h post) (“treatment”) treated with probenecid at the indicated concentrations. Mice (n=5/sex/group) were challenged i.n. with 1e6 PFU hMPV CAN83 (A2 strain). Lungs were collected 5 dpi and a plaque assay performed. The results are illustrated in FIGS. 26A-26B.

[3] = system: Mumps (Jones) virus; assay: Mumps assay in Vero-P cells; type: cell-based; settings: MOI=0.1, FIG. 10
Description: (§1) Experiments Conducted in Vero-P Cells.

[4] = system: Zika (MR766) virus; assay: Zika assay in Vero-P cells; type: cell-based; settings: MOI=0.1, FIG. 11
Description: as §1

[5] = system: SARS-CoV-2; settings: cited from earlier work
[6] = system: SARS-CoV-2; assay: SARS-CoV-2 IC90 (Investigator Brochure); settings: Severe acute respiratory syndrome coronavirus 2, read-out: IC90 level corrected for 95% protein binding
[7] = in vivo, cited from earlier work
[8] = system: E. coli; assay: Killing of free bacteria
[9] = system: SARS-CoV-2; settings: ten non-hospitalized patients, mild to moderate infection; 28 day; cited from earlier work
[10] = system: Measles virus; assay: Measles virus plaque assay; type: cell-based; settings: HEp2 and Vero cells treated before infection; MOI=0.01; 72 hours
Procedure: Plate 4×10^4/well of Vero-E6 or Hep-2 cells to be 95-100% confluent the next day. The next day make fresh dilutions of Probenecid were made. From a stock concentration of 10 mM in 100% DMSO, dilutions were made with half DMSO and half DMEM with 4% BSA fraction. FBS inhibits some viruses. Media was decanted and dilutions of probenecid were added to cells. Controls: DMSO/Media mixture, Media with no Probenecid, Media with no virus. Probenecid dilutions were left on cells for 24 hrs. After 24 hrs, media was decanted and virus was added (MOI=0.01/well). Virus was diluted to MOI=0.01 per 100 uL with DMEM. Left virus inoculum on cells for 1 hr. After 1 hr, infection media was decanted and replaced with dilutions of Probenecid. For Immunostaining, plates were left for 24 hrs before fixing cells. For Plaque Assays, plates were left for 72 hrs before freezing at −80 C.
For plaque assays of probenecid treated cells, cells were treated with various concentrations of Probenecid before being infected with Measles virus (MOI=0.01). After 72 hours, cells were frozen until plaque assay. Plaque concentrations are recorded as log 10 PFU/mL.

[11] = system: Dengue Type 1 virus; assay: Dengue assay in Vero-P cells; settings: MOI=0.1, FIG. 12
[12] = system: SLC22A8 (OAT3) transcripts; assay: OAT3 expression in HEp-2 cells (qPCR); settings: HEp-2 cells treated with IC90 of probenecid [7.2 uM] for 24 h
[13] = Preliminary virology data used for pediatric simulations; settings: virus not stated
Procedure: Simulations were also conducted in pediatric subjects. Allometric scaling based on body weights used as an empirical approach to predict concentrations in pediatric subjects. 10 mg/kg qd, 10 mg/kg bid, 20 mg/kg qd, 20 mg/kg bid dose was simulated. IC50 from preliminary virology data is 1 nM.

[14] = system: RSV A2; assay: In vitro probenecid inhibition assay, RSV A2 (plaque assay); type: cell-based, respiratory syncytial virus (RSV); settings: for IC50 / IC90: human respiratory syncytial virus; for virus replication compared to control (DMSO only): Vero E6, HEp-2 and NHBE cells
[15] = system: A/WSN/33 (H1N1); assay: A/WSN/33 (H1N1) IC50 (Perwitasari et al.); type: cell-based; settings: Influenza A virus; converted from 0.5 nM
[16] = system: influenza virus; assay: Influenza assays in A549 cells; type: cell-based
Procedure: Experiment Conducted in A549 Cells.
[…] with influenza virus (MOI=0.1) for 1 hour
The virus is plaqued in MDCK cells while studies are carried out in human respiratory epithelial cells.

[17] = system: RSV B1; assay: In vitro probenecid inhibition assay, RSV B1 (plaque assay); type: cell-based, respiratory syncytial virus (RSV); settings: for IC50 / IC90: human respiratory syncytial virus; for IC90: up to 100 μM; for virus replication compared to control (DMSO only): Vero E6, HEp-2 and NHBE cells
[18] = Vero C1008, Prophylaxis (24 h before infection), Vero E6 cells
[19] = Vero C1008, Treatment (24 h after infection), Vero E6 cells
[20] = Prophylaxis (24 h before infection), HEp-2 cells
[21] = Prophylaxis (24 h before infection), NHBE cells
[22] = Treatment (24 h after infection), HEp-2 cells
[23] = Treatment (24 h after infection), NHBE cells

For CCCN(CCC)S(=O)(=O)c1ccc(C(=O)O)cc1 [Probenecid, 4-[(dipropylamino)sulfonyl] benzoic acid], the “lung virus titers compared to control (PBS)” value ([1]; female BALB/c mice) was “significantly (p<0.0001) reduced lung virus titer; also recorded: significant (**** p<0.0001) reduction in lung viral titers”, the “lung virus titers compared to control (PBS)” value ([1]; male BALB/c mice) was “significantly (p<0.0001) reduced lung virus titer; also recorded: significant (**** p<0.0001) reduction in lung viral titers” and the “effect on hMPV infection (lung plaque assay)” value [2] was “Prophylactically and Therapeutically Reduces Human Metapneumovirus (HMPV) Infection”. For the same compound, the “inhibition of virus replication” value [3] was “picomolar levels of probenecid were effective at inhibiting virus replication”, the “inhibition of virus replication” value [4] was “picomolar levels of probenecid were effective at inhibiting virus replication” and the “efficacy at treating SARS-CoV-2” value ([5]; hamsters, 2 mg/kg and 200 mg/kg) was “both effective at treating SARS-CoV-2 in hamsters in vivo”. For the same compound, the “effect on virus replication and inflammatory response” value ([5]; in vitro and pre-clinical hamster studies (WO 2021/207606)) was “block replication of the SARS-CoV-2 virus and the associated acute inflammatory response to the infection”, the IC90 [6] was 2.08 µg/mL (≈ 7.29 µM) and the absorption ([7]; po) was “completely absorbed after oral administration”. The “time to peak plasma concentration” value ([7]; po) was 2 to 4 h, the half life [7] was 6 to 12 h and the half-life in plasma [7] was “less than 5 hr to more than 8 hr”. The killing of bacteria [8] was “did not kill bacteria”, the patient symptoms [9] was “patient symptoms showed improvement” and the plaque titers [10] was “below the limit of detection”. For the same compound, the “inhibition of virus replication” value [11] was “picomolar levels of probenecid were effective at inhibiting virus replication”, the “OAT3 Raw Ct Value” [12] was “undetectable levels of OAT3 transcripts; also recorded: No Ct” and the IC50 [13] was 0.001 µM. The IC50 [14, 18] was 0.07 µM, the IC90 [14, 18] was 0.63 µM and the IC50 [14, 19] was 0.1 µM. The IC90 [14, 19] was 2.7 µM, the IC50 [14, 20] was 0.8 µM and the IC90 [14, 20] was 7.2 µM. The IC50 [14, 21] was 0.4 µM, the IC90 [14, 21] was 3.6 µM and the IC50 [14, 22] was 1.2 µM. It also gave an IC90 [14, 22] of 10.8 µM, an IC50 [14, 23] of 0.3 µM and an IC90 [14, 23] of 2.7 µM. For the same compound, the “virus replication compared to control (DMSO only)” value ([14]; prophylaxis 24 h before RSV A2 infection, FIG. 1) was “significantly (**** p<0.0001) inhibited the virus replication”, the “virus replication compared to control (DMSO only)” value ([14]; treated 24 h after RSV A2 infection, FIG. 2) was “significantly (**** p<0.0001) inhibited the virus replication” and the IC50 [15] was 0.000143 µg/mL (≈ 0.000501 µM). The IC50 for flu [16] was “in the picomolar range”, the IC50 [17, 18] was 0.85 µM and the IC90 [17, 18] was > 100 µM. For the same compound, the IC50 [17, 19] was 2 µM, the IC90 [17, 19] was > 100 µM and the IC50 [17, 20] was 0.8 µM. For the same compound, the IC90 [17, 20] was > 100 µM, the IC50 [17, 21] was 0.8 µM and the IC90 [17, 21] was > 100 µM. For the same compound, the IC50 [17, 22] was 0.9 µM, the IC90 [17, 22] was > 100 µM and the IC50 [17, 23] was 1.2 µM. For the same compound, the IC90 [17, 23] was > 100 µM, the “virus replication compared to control (DMSO only)” value ([17]; prophylaxis 24 h before RSV B1 infection, FIG. 3) was “significantly (**** p<0.0001) inhibited the virus replication” and the “virus replication compared to control (DMSO only)” value ([17]; treated 24 h after RSV B1 infection, FIG. 4) was “significantly (**** p<0.0001) inhibited the virus replication”.
